Data taken from patent US20230157950A1, “OROMUCOSAL FILM COMPOSITIONS COMPRISING EPINEPHRINE PARTICLES” (ReForm Therapeutics Ltd., priority 2021, published 2023).

Settings: acetone, ethanol, methanol, isopropyl alcohol, alkaline water-based solvents, 25° C. and 45° C.

time for which size and structure of epinephrine particles is maintained in solvents/dispersants: at least 6 hours
solubility of epinephrine particles in the selected solvents/dispersants (up to 6 hours, SEM): none or very limited solubility
Structure (SMILES): CNC[C@H](O)c1ccc(O)c(O)c1 [Epinephrine base particles, Epinephrine base]
